Assay results published in patent US20220073592A1, “SYNTHETIC AND RECOMBINANT COLLAGEN PEPTIDES HAVING BIOLOGICAL ACTIVITY” (GELITA AG, priority 2018, published 2022).
“And” between values parts separate entries of the source, which are not always exact repeats. Equal entries are not always repeated. Where no end group is shown, it is not given here. [ ]: non-standard residue; d: D form. Hyp = O=C(O)[C@@H]1C[C@@H](O)CN1

Assays:
Format in all cases: cell-based
human chondrocytes [1] = experiment: Blyscan glycosaminoglycan assay, proteoglycan synthesis by chondrocytes; conditions: 0.5 mg/ml; for increase in collagen synthesis (in the proteoglycan assay, chondrocytes): hydroxylated peptides; for increase in the synthesis of proteoglycans by chondrocytes compared to untreated controls: non-hydroxylated peptides
human chondrocytes [2] = experiment: Sircol collagen assay, collagen synthesis by chondrocytes; conditions: 0.5 mg/ml peptide, three weeks stimulation
Experimental: (§1) The human cells used were obtained from tebu-bio GmbH, Offenbach, Germany. The chondrocytes (Cat. No. 402-05a) or dermal fibroblasts (Cat. No. 106-05a) were first sown in 12-well culture plates and cultured at 37° C., 5% CO2 in Ham's F12 medium, to which 10% fetal calf serum, 20 U/ml penicillin-streptomycin and 50 μg/ml ascorbic acid were added. On every other day, the culture medium was replaced by new culture medium until the cells had reached 80% confluence. […] To investigate the collagen metabolism, the amount of newly synthesized collagen was determined after stimulating the cells with 0.5 mg/ml BCP for three weeks. The synthesized collagen was isolated using the Sircol assay (Article No. 054S5000, 2019, tebu-bio, Offenbach, Germany, or Biocolor Ltd., UK) according to the manufacturer's instructions. In brief, the culture medium was initially discarded and the adherent cell layers were digested with 0.1 mg pepsin solution in 0.5 M acetic acid at 4° C. overnight. The cell suspensions were neutralized by adding 100 μl of an acid-neutralizing reagent. The synthesized collagen was then separated off by adding 200 μl of an isolation and concentration solution with vigorous shaking at 4° C. overnight. After centrifugation (12,000 rpm, 10 min) and discarding the supernatant, the isolated collagen was resuspended in 1 ml of Sircol dye solution. After 30 minutes of shaking and another centrifugation, the collagen pellet was covered with 750 μl of cold acidic solid washing reagent. After another centrifugation, the supernatant was again discarded and the enriched collagen was taken up in 250 μl of alkaline solution. In each case 200 μl of the sample solutions were used for photometric quantification of the synthesized collagen. The absorbance was measured at a wavelength of 492 nm. The amount of collagen synthesized in each case was determined on the basis of standardized collagen solutions.

human dermal fibroblasts [3] = experiment: Sircol collagen assay, collagen synthesis by dermal fibroblasts; conditions: 0.5 mg/ml peptide, three weeks stimulation
Experimental: as §1

human dermal fibroblasts [4] = experiment: Blyscan glycosaminoglycan assay, proteoglycan synthesis by dermal fibroblasts; conditions: 0.5 mg/ml, two weeks stimulation; for increase in the synthesis of proteoglycans by dermal fibroblasts compared to untreated controls: hydroxylated peptides; for increase in collagen synthesis (in the proteoglycan assay, dermal fibroblasts): non-hydroxylated peptides
Experimental: The human cells used were obtained from tebu-bio GmbH, Offenbach, Germany. The chondrocytes (Cat. No. 402-05a) or dermal fibroblasts (Cat. No. 106-05a) were first sown in 12-well culture plates and cultured at 37° C., 5% CO2 in Ham's F12 medium, to which 10% fetal calf serum, 20 U/ml penicillin-streptomycin and 50 μg/ml ascorbic acid were added. On every other day, the culture medium was replaced by new culture medium until the cells had reached 80% confluence. […] The Blyscan glycosaminoglycan assay (Article No. 054B3000, 2019, tebu-bio, Offenbach, Germany, or Biocolor Ltd., UK) was used to determine proteoglycans. The biosynthesis of proteoglycans was determined after stimulating dermal fibroblasts for two weeks. According to the manufacturer's instructions, after discarding the culture medium, the cell layers were covered with 1 ml of papain extraction solution and incubated for three hours at 65° C. with vigorous shaking. The cell suspensions were then centrifuged (10,000 g, 10 min) and the supernatants were collected. After adding 1 ml of Blyscan dye solution and shaking (30 min), the supernatants were centrifuged again (12,000 rpm, 10 min) and then discarded. The isolated proteoglycan pellets were resuspended in 500 μl of dissociation solution. A photometric determination of the synthesized proteoglycan in 200 μl sample solution was carried out at a wavelength of 656 nm in comparison to untreated control experiments.

Substance: Gly-Ala-4Hyp-Gly-Lys-Asp-Gly-Val-Arg-Gly-Leu-Thr-Gly-Pro-Ile-Gly-Pro-4Hyp-Gly-Pro-Ala-Gly-Ala-4Hyp-Gly-Asp-Lys-Gly-Glu-Ala-Gly-Pro-Ser (GA[Hyp]GKDGVRGLTGPIGP[Hyp]GPAGA[Hyp]GDKGEAGPS) [SEQ ID No. 7, collagen peptide comprising 33 amino acids]
- increase in collagen synthesis (in the proteoglycan assay, chondrocytes) (human chondrocytes [1]): 30%
- increase in collagen synthesis by chondrocytes compared to untreated controls (human chondrocytes [2]): 28%
- increase in collagen synthesis by dermal fibroblasts compared to untreated controls (human dermal fibroblasts [3]): 42%
- increase in the synthesis of proteoglycans by dermal fibroblasts compared to untreated controls (human dermal fibroblasts [4]): 41%

Substance: GPPGPAGEKGAPGADGPAGAPGTPGPQGIAGQRGV [SEQ ID No. 16, collagen peptide comprising 35 amino acids]
- increase in the synthesis of proteoglycans by chondrocytes compared to untreated controls (human chondrocytes [1]): 18%
- increase in collagen synthesis by chondrocytes compared to untreated controls (human chondrocytes [2]): 31%
- increase in collagen synthesis by dermal fibroblasts compared to untreated controls (human dermal fibroblasts [3]): 22%
- increase in collagen synthesis (in the proteoglycan assay, dermal fibroblasts) (human dermal fibroblasts [4]): 18%

Substance: Gly-Ala-4Hyp-Gly-Lys-Asp-Gly-Val-Arg-Gly-Leu-Thr-Gly-Pro-Ile-Gly-Pro-4Hyp-Gly-Pro-Ala-Gly-Ala-Arg (GA[Hyp]GKDGVRGLTGPIGP[Hyp]GPAGAR) [SEQ ID No. 9, collagen peptide comprising 24 amino acids]
- increase in collagen synthesis (in the proteoglycan assay, chondrocytes) (human chondrocytes [1]): 19%
- increase in collagen synthesis by chondrocytes compared to untreated controls (human chondrocytes [2]): 24%
- increase in collagen synthesis by dermal fibroblasts compared to untreated controls (human dermal fibroblasts [3]): 38%
- increase in the synthesis of proteoglycans by dermal fibroblasts compared to untreated controls (human dermal fibroblasts [4]): 27%

Substance: GAPGKDGVRGL [SEQ ID No. 11, collagen peptide comprising 11 amino acids]
- increase in the synthesis of proteoglycans by chondrocytes compared to untreated controls (human chondrocytes [1]): 28%
- increase in collagen synthesis by chondrocytes compared to untreated controls (human chondrocytes [2]): 16%
- increase in collagen synthesis by dermal fibroblasts compared to untreated controls (human dermal fibroblasts [3]): 19%
- increase in collagen synthesis (in the proteoglycan assay, dermal fibroblasts) (human dermal fibroblasts [4]): 18%

Substance: Gly-Pro-4Hyp-Gly-Pro-Val-Gly-Thr-Lys-Gly-Ile-4Hyp-Gly-Val-Tyr-Gly-Pro-Leu-Gly-Ile-4Hyp-Gly-Thr-Pro-Gly-Pro-Trp-Gly-Ile-Leu-Gly-Thr-Lys-Arg-Gly-Val (GP[Hyp]GPVGTKGI[Hyp]GVYGPLGI[Hyp]GTPGPWGILGTKRGV) [SEQ ID No. 24, collagen peptide comprising 36 amino acids]
- increase in collagen synthesis (in the proteoglycan assay, chondrocytes) (human chondrocytes [1]): 15% and 26%
- increase in collagen synthesis by chondrocytes compared to untreated controls (human chondrocytes [2]): 26%
- increase in collagen synthesis by dermal fibroblasts compared to untreated controls (human dermal fibroblasts [3]): 36%
- increase in the synthesis of proteoglycans by dermal fibroblasts compared to untreated controls (human dermal fibroblasts [4]): 26%

Substance: Gly-Ala-4Hyp-Gly-Lys-Asp-Gly-Val-Arg-Gly-Leu (GA[Hyp]GKDGVRGL) [SEQ ID No. 17, collagen peptide comprising 11 amino acids]
- increase in collagen synthesis (in the proteoglycan assay, chondrocytes) (human chondrocytes [1]): 31%
- increase in collagen synthesis by chondrocytes compared to untreated controls (human chondrocytes [2]): 33%
- increase in collagen synthesis by dermal fibroblasts compared to untreated controls (human dermal fibroblasts [3]): 42%
- increase in the synthesis of proteoglycans by dermal fibroblasts compared to untreated controls (human dermal fibroblasts [4]): 24%

Substance: Lys-Gly-Ala-4Hyp-Gly-Ala-Asp-Gly-Pro-Ala-Gly-Ala-4Hyp-Gly-Thr-Pro-Gly-Pro-Gln (KGA[Hyp]GADGPAGA[Hyp]GTPGPQ) [SEQ ID No. 21, collagen peptide comprising 19 amino acids]
- increase in collagen synthesis (in the proteoglycan assay, chondrocytes) (human chondrocytes [1]): 22%
- increase in collagen synthesis by chondrocytes compared to untreated controls (human chondrocytes [2]): 55%
- increase in collagen synthesis by dermal fibroblasts compared to untreated controls (human dermal fibroblasts [3]): 36%
- increase in the synthesis of proteoglycans by dermal fibroblasts compared to untreated controls (human dermal fibroblasts [4]): 27%

Substance: Gly-Ala-4Hyp-Gly-Pro-Pro-Gly-Pro-4Hyp-Gly-Ala-Arg-Gly-Gln-Ala-Gly-Val-Met-Gly-Phe-4Hyp-Gly-Pro-Lys [SEQ ID No. 10]
- increase in collagen synthesis (in the proteoglycan assay, chondrocytes) (human chondrocytes [1]): 29%
- increase in collagen synthesis by chondrocytes compared to untreated controls (human chondrocytes [2]): 20%
- increase in collagen synthesis by dermal fibroblasts compared to untreated controls (human dermal fibroblasts [3]): 35%
- increase in the synthesis of proteoglycans by dermal fibroblasts compared to untreated controls (human dermal fibroblasts [4]): 25%

Substance: GAPGKDGVRGLTGPIGPPGPAGA [SEQ ID No. 12, collagen peptide comprising 23 amino acids]
- increase in the synthesis of proteoglycans by chondrocytes compared to untreated controls (human chondrocytes [1]): 23%
- increase in collagen synthesis by chondrocytes compared to untreated controls (human chondrocytes [2]): 24%
- increase in collagen synthesis by dermal fibroblasts compared to untreated controls (human dermal fibroblasts [3]): 22%
- increase in collagen synthesis (in the proteoglycan assay, dermal fibroblasts) (human dermal fibroblasts [4]): 19%
